Assay results: patent US5886178A, “3-aroylbenzylpyridazinone derivatives” (Syntex (U.S.A.) Inc., priority 1997, dated 1999)

Legend:
[1] = tested on: prostaglandin E2 synthesis; test: Inhibition of eicosanoid (PGE2) synthesis in vivo, carrageenan air-pouch model in rats; parameters: species or system rat; conditions: 10 mg/Kg, oral, male rats
Protocol: In this assay, an air-pouch is created in the rat and the PGE2 levels in the air-pouch exudate are measured by enzyme immunoassay. Briefly, male rats were anesthetized using a 60:40 CO2 :O2 mixture and subsequently injected subcutaneously with 20 ml of sterilized air, under aseptic conditions, in the proximal area of the dorsum. This injection of sterile air causes the creation of a subcutaneous "air pouch". The next day, a further 10 ml of sterile air was injected into the previously formed pouch using the same technique. […] Control rats received vehicle alone. After 30 minutes, 5 ml of a 0.5% solution of carrageenan (Sigma, Lambda Type IV) was injected into the air pouch. The rats were euthanized 3 hr after the compound administration. […] The total exudate volume was recorded, and the samples were analyzed for PGE2 and 6-keto PGF1 by ELISA (Titerzyme®, PerSeptive Diagnostics) and TxB2 by radioimmuno assay (New England Nuclear Research, Catalog No. NEK-037), according to the manufacturer's directions.
The mean concentrations of PGE2 were calculated for each group. The anti-inflammatory activity of test materials is expressed as the percent inhibition of PGE2 formation in the test group relative to the control group.

[2] = Acetic Acid-induced Rat Writhing Assay (analgesic activity); assay type: in vivo; conditions: 10 mg/Kg, oral, male Sprague Dawley rats
Excerpt: The analgesic activity of compounds of this invention may be determined by the Acetic Acid-induced Rat Writhing Assay, using a modification of the method described in Berkenkopf, J. W. and Weichman, B. M. "Production of Prostacyclin in Mice following Intraperitoneal Injection of Acetic Acid, Phenylbenzoquinone and Zymosan: Its Role in the Writhing Response". Prostaglandins: 36: 693-70 (1988). This assay is one of several acute assays which have been used to assess the analgesic activity of NSAIDs, and is considered predictive of human efficacy. The test materials were administered orally to male Sprague Dawley rats in a volume of 1 ml/100 g body weight as solutions or suspensions in an aqueous vehicle containing 0.9% NaCl, 0.5% sodium carboxymethyl-cellulose, 0.4% polysorbate 80, 0.9% benzyl alcohol and 97.3% water. Control rats received vehicle alone. One hour after compound administration, 0.3 ml/100 g body weight of 0.75% solution of acetic acid was injected intraperitoneally. The acetic acid injection induces a series of characteristic writhing responses, which were counted over the period between 15 and 30 minutes after the injection. The analgesic activity of test materials is expressed as the percentage inhibition of writhing in the test group relative to the control group.

COX I = COX I (Homo sapiens, UniProt P23219); test: Inhibition of COX I in a cell based assay (human promonocytic THP cells, TXB2 ELISA); parameters: endogenous in cells; host or cells: human promonocytic THP cells, PMA-treated
Sequence of COX I (P23219 24-599): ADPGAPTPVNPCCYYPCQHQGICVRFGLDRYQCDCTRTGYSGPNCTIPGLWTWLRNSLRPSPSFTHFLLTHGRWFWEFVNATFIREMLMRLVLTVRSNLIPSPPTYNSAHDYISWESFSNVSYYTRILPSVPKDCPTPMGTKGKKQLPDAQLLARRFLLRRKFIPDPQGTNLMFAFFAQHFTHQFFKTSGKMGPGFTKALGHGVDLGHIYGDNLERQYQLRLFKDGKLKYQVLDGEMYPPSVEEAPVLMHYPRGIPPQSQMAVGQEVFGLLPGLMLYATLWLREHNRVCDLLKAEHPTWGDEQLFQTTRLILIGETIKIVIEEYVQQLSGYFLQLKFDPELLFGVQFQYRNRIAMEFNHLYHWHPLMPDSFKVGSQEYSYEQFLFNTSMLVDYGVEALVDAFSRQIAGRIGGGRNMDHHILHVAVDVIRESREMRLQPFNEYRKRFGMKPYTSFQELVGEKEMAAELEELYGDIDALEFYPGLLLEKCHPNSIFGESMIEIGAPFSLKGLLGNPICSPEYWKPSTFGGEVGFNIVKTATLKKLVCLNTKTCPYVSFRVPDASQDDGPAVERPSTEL
Protocol: The COX I and COX II inhibitory activity of compounds of this invention in a cell based assay was determined as described below.
The inhibitory activity of the test compounds against cell associated COX-1 was measured using human promonocytic THP cells. Cells were plated in 96-well microtiter plates at a density of 8×10^4 cells/well in RPMI-1640 medium (Gibco). COX-1 activity was initiated by incubating the cells with 0.1μM phorbol 12-myristate 13-acetate (PMA, Sigma) in dimethyl sulfoxide (DMSO, Aldrich) at 37° C. After 40-48 hours, the medium was removed, and the cells were washed twice with phosphate buffered saline (PBS, Gibco). 225 μl/well of fresh medium containing desired concentrations of the test compounds in DMSO, or the carrier vehicles (control wells), was added and the cells incubated at 37° C. for 30 minutes; after which 5 μM calcium ionophore A23187 (Sigma) was added and the incubation was continued for an additional 10 minutes. The reaction was terminated by transferring the plates to ice. The culture supernatants were transferred and appropriately diluted and the amount of thromboxane B2 (TXB2) present in each supernatant was quantitated using an ELISA kit (Cayman Chemicals).
The COX I and COX II inhibitory activities in the cell based assay (expressed as IC50) of some compounds of the invention were: […]

In the case of `COc1ccc(C(=O)c2cccc(Cc3ccc(=O)[nH]n3)c2C)cc1` [Cpd 11, 6-[3-(4-methoxybenzoyl)-2-methylbenzyl]-2H-pyridazin-3-one], the “% inhibition of air pouch PGE2 formation” value [1] is reported as 80%, the “% inhibition of writhing responses” value [2] is reported as 10% and the IC50 (COX I) is reported as 4.8 µM.
